What all share (type): in vivo
One test deals with Spodoptera frugiperda. The experiment in a line: Spodoptera frugiperda spray test (maize leaf discs, caterpillars). The note with it: foliar, 168 h, Aufwandmenge 500g/ha, after 7 days, read-out: Wirkung. An excerpt:
(§1) Zur Herstellung einer zweckmäßigen Wirkstoffzubereitung löst man 1 Gewichtsteil Wirkstoff mit den angegebenen Gewichtsteilen Lösungsmittel und füllt mit Wasser, welches eine Emulgatorkonzentration von 1000 ppm enthält, bis zum Erreichen der gewünschten Konzentration auf. Zur Herstellung weiterer Testkonzentrationen wird mit emulgatorhaltigem Wasser verdünnt.
Maisblattscheiben (Zea mays) werden mit einer Wirkstoffzubereitung der gewünschten Konzentration gespritzt und nach dem Abtrocknen mit Raupen des Heerwurms (Spodoptera frugiperda) besetzt.
Nach 7 Tagen wird die Wirkung in % bestimmt. Dabei bedeutet 100 %, dass alle Raupen abgetötet wurden; 0 % bedeutet, dass keine Raupe abgetötet wurde.

The subject of another test is Ctenocephalides felis. Briefly: Ctenocephalides felis oral test (feeding on treated citrated cattle blood). Conditions: 48 h, Aufwandmenge 100ppm, after 2 days, read-out: Wirkung (Abtötung). On the procedure: Zwecks Herstellung einer zweckmäßigen Wirkstoffzubereitung vermischt man 10 mg Wirkstoff mit 0,5 ml Dimethylsulfoxid. Durch Verdünnen mit citriertem Rinderblut erhält man die gewünschte Konzentration.
Ca. 20 nüchterne adulte Katzenflöhe (Ctenocephalides felis) werden in eine Kammer eingesetzt, die oben und unten mit Gaze verschlossen ist. Auf die Kammer wird ein Metallzylinder gestellt, dessen Unterseite mit Parafilm verschlossen ist. Der Zylinder enthält die Blut-Wirkstoffzubereitung, die von den Flöhen durch die Parafilmmembran aufgenommen werden kann.
Nach 2 Tagen wird die Abtötung in % bestimmt. Dabei bedeutet 100 %, dass alle Flöhe abgetötet wurden; 0 % bedeutet, dass keiner der Flöhe abgetötet wurde.

Another test concerns Phaedon cochleariae. Briefly: Phaedon cochleariae spray test (Chinese cabbage leaf discs, larvae). Conditions: foliar, 168 h, read-out: Wirkung.
Text: as §1
Chinakohlblattscheiben (Brassica pekinensis) werden mit einer Wirkstoffzubereitung der gewünschten Konzentration gespritzt und nach dem Abtrocknen mit Larven des Meerrettichblattkäfers (Phaedon cochleariae) besetzt.
Nach 7 Tagen wird die Wirkung in % bestimmt. Dabei bedeutet 100 %, dass alle Käferlarven abgetötet wurden; 0 % bedeutet, dass keine Käferlarven abgetötet wurden.

As to `O=C(Cc1ccc(C(F)(F)F)cc1)Nc1cc(-c2ccc(OC(F)(F)F)cc2)cc(NC(=O)C2CC2)n1` [I-002], the mortality at 500 g/ha in the test on Spodoptera frugiperda worked out at 100%.
As to `N#Cc1cccc(CC(=O)Nc2cc(-c3ccc(OC(F)(F)F)cc3)cc(NC(=O)C3CC3)n2)c1` [I-003], the mortality at 100 µg/mL with Ctenocephalides felis came to 100%. In the test with Spodoptera frugiperda, the mortality at 500 g/ha stood at 100%.
As to `CC1(C(=O)Nc2cc(-c3ccc(OC(F)(F)F)cc3)cc(NC(=O)C3CC3)n2)CC1` [I-004], the mortality at 100 µg/mL in the test on Ctenocephalides felis stood at 100%. The mortality at 500 g/ha in the test on Phaedon cochleariae and in the test with Spodoptera frugiperda was 100% in each case.
As for `N#CC1(C(=O)Nc2cc(-c3ccc(OC(F)(F)F)cc3)cc(NC(=O)C3CC3)n2)CC1` [I-005], the mortality at 100 µg/mL in the test on Ctenocephalides felis amounted to 100%. Further, the mortality at 500 g/ha in the test on Phaedon cochleariae was found to be 83%; in the test with Spodoptera frugiperda it was 100%.
Regarding `N#Cc1ccc(CC(=O)Nc2cc(-c3ccc(OC(F)(F)F)cc3)cc(NC(=O)C3CC3)n2)cc1` [I-007], the mortality at 100 µg/mL in the test on Ctenocephalides felis stood at 100%. Moreover, in the test with Spodoptera frugiperda, the mortality at 500 g/ha came to 83%.
For the molecule `CC(C)(C#N)C(=O)Nc1cc(-c2ccc(OC(F)(F)F)cc2)cc(NC(=O)C2CC2)n1` [I-009], the mortality at 500 g/ha in the test on Spodoptera frugiperda was 100%.
As to `CC(C)(C(=O)Nc1cc(-c2ccc(OC(F)(F)F)cc2)cc(NC(=O)C2CC2)n1)c1ccccc1` [I-010], the mortality at 500 g/ha with Phaedon cochleariae was 100%.
On to `CC1(C(=O)Nc2cc(-c3ccc(OC(F)(F)F)cc3)cc(NC(=O)C3CC3)n2)CCCC1` [I-011], for which, in the test on Spodoptera frugiperda, the mortality at 500 g/ha amounted to 100%.
For `O=C(Nc1cc(-c2ccc(OC(F)(F)F)cc2)cc(NC(=O)C2(Cl)CC2)n1)C1CC1` [I-013], the mortality at 500 g/ha in the test on Spodoptera frugiperda stood at 100%.
On to `CC(C)(C(=O)Nc1cc(-c2ccc(OC(F)(F)F)cc2)cc(NC(=O)C2CC2)n1)C(F)(F)F` [I-016], for which the mortality at 500 g/ha in the test on Phaedon cochleariae and in the test with Spodoptera frugiperda was 100% each time.
Regarding `CC(C)C(=O)Nc1cc(-c2ccc(OC(F)(F)F)cc2)cc(NC(=O)C2CC2)n1` [I-018], in the test with Ctenocephalides felis, the mortality at 100 µg/mL came out at 100%. The mortality at 500 g/ha with Phaedon cochleariae and in the test with Spodoptera frugiperda was 100% each time.
For `CCCCC(=O)Nc1cc(-c2ccc(OC(F)(F)F)cc2)cc(NC(=O)C2CC2)n1` [I-019], the mortality at 500 g/ha in the test on Phaedon cochleariae and in the test with Spodoptera frugiperda was 100% in each case.
On to `CCC(=O)Nc1cc(-c2ccc(OC(F)(F)F)cc2)cc(NC(=O)C2CC2)n1` [I-020], for which the mortality at 500 g/ha in the test on Phaedon cochleariae and in the test with Spodoptera frugiperda was 100% each time.
Turning to `O=C(Nc1cc(-c2ccc(OC(F)(F)F)cc2)cc(NC(=O)C2CC2)n1)C1CCCC1` [I-021], in the test on Ctenocephalides felis, the mortality at 100 µg/mL amounted to 100%. Besides, the mortality at 500 g/ha in the test with Spodoptera frugiperda is 100%.
In the case of `CC(=O)Nc1cc(-c2ccc(OC(F)(F)F)cc2)cc(NC(=O)C2CC2)n1` [I-022], the mortality at 100 µg/mL in the test with Ctenocephalides felis was found to be 100%. The mortality at 500 g/ha in the test with Phaedon cochleariae and in the test on Spodoptera frugiperda was 100% in each case.
Turning to `CCCC(=O)Nc1cc(-c2ccc(OC(F)(F)F)cc2)cc(NC(=O)C2CC2)n1` [I-023], the mortality at 100 µg/mL with Ctenocephalides felis was 100%. For the same molecule, the mortality at 500 g/ha in the test on Phaedon cochleariae and in the test with Spodoptera frugiperda was 100% each time.
For the molecule `N#CCCC(=O)Nc1cc(-c2ccc(OC(F)(F)F)cc2)cc(NC(=O)C2CC2)n1` [I-025], the mortality at 500 g/ha in the test on Phaedon cochleariae was determined as 83%; in the test on Spodoptera frugiperda it was 100%.
Consider `O=C(Nc1cc(-c2ccc(OC(F)(F)F)cc2)cc(NC(=O)C2CC2)n1)c1ccccc1` [I-026], for which, in the test with Ctenocephalides felis, the mortality at 100 µg/mL was 100%. The mortality at 500 g/ha in the test with Phaedon cochleariae stood at 83%; in the test with Spodoptera frugiperda, 100%.
Regarding `N#Cc1ccc(C(=O)Nc2cc(-c3ccc(OC(F)(F)F)cc3)cc(NC(=O)C3CC3)n2)cc1` [I-027], the mortality at 100 µg/mL with Ctenocephalides felis was 100%. The mortality at 500 g/ha in the test with Phaedon cochleariae and in the test on Spodoptera frugiperda was 100% each time.
Take `O=C(Nc1cc(-c2ccc(OC(F)(F)F)cc2)cc(NC(=O)C2CC2(C2CC2)C2CC2)n1)C1CC1` (centres unmarked) [I-028]: the mortality at 100 µg/mL with Ctenocephalides felis worked out at 100%. Besides, the mortality at 500 g/ha in the test with Phaedon cochleariae and in the test with Spodoptera frugiperda was 100% each time.
For the molecule `O=C(Nc1cc(-c2ccc(OC(F)(F)F)cc2)c(Cl)c(NC(=O)C2CC2)n1)C1CC1` [I-038], in the test with Spodoptera frugiperda, the mortality at 500 g/ha came to 83%.
`Cc1cc(-c2cc(NC(=O)C3CC3)nc(NC(=O)C3CC3)c2)cc(F)c1C(F)(F)C(F)(F)F` [I-040]: the mortality at 500 g/ha in the test on Phaedon cochleariae and in the test on Spodoptera frugiperda was 100% in each case.
Regarding `O=C(Nc1cc(-c2c(F)cc(C(F)(F)C(F)(F)F)cc2F)cc(NC(=O)C2CC2)n1)C1CC1` [I-041], the mortality at 500 g/ha with Spodoptera frugiperda stood at 83%.
The same measure, in the same setting: in the case of `O=C(Nc1cc(-c2cc(F)c(C(F)(F)C(F)(F)F)cc2Cl)cc(NC(=O)C2CC2)n1)C1CC1` [I-042] it was 100%.
Turning to `Cc1cc(-c2cc(NC(=O)C3CC3)nc(NC(=O)C3CC3)c2)ccc1C(F)(F)C(F)(F)F` [I-043], the mortality at 100 µg/mL in the test on Ctenocephalides felis worked out at 100%. The mortality at 500 g/ha in the test with Phaedon cochleariae and in the test on Spodoptera frugiperda was 100% in each case.
On to `O=C(Nc1cc(-c2cc(F)c(C(F)(F)C(F)(F)F)c(F)c2)cc(NC(=O)C2CC2)n1)C1CC1` [I-044], for which the mortality at 500 g/ha with Spodoptera frugiperda was 100%.
With `O=C(Nc1cc(-c2ccc(C(F)(F)C(F)(F)F)c(F)c2F)cc(NC(=O)C2CC2)n1)C1CC1` [I-045], the mortality at 500 g/ha with Phaedon cochleariae and with Spodoptera frugiperda was 100% throughout.
For `O=C(Nc1cc(-c2ccc(C(F)(F)C(F)(F)F)c(Cl)c2)cc(NC(=O)C2CC2)n1)C1CC1` [I-046], the mortality at 100 µg/mL in the test with Ctenocephalides felis worked out at 100%. In addition, the mortality at 500 g/ha in the test with Phaedon cochleariae and in the test with Spodoptera frugiperda was 100% throughout.
Take `O=C(Nc1cc(-c2cc(F)c(C(F)(F)C(F)(F)F)c(F)c2F)cc(NC(=O)C2CC2)n1)C1CC1` [I-047]: the mortality at 500 g/ha with Spodoptera frugiperda stood at 83%.
In the case of `O=C(Nc1cc(-c2cc(F)c(C(F)(F)C(F)(F)F)cc2F)cc(NC(=O)C2CC2)n1)C1CC1` [I-048], the mortality at 500 g/ha with Phaedon cochleariae amounted to 83%; in the test with Spodoptera frugiperda, 100%.
`O=C(Nc1cc(NC(=O)C2CC2)cc(-c2ccc(C(F)(F)C(F)(F)F)c(F)c2)c1)C1CC1` [I-050]: the mortality at 100 µg/mL in the test with Ctenocephalides felis worked out at 100%. Also, the mortality at 500 g/ha in the test on Phaedon cochleariae and with Spodoptera frugiperda was 100% each time.
Take `CC(C)C(=O)Nc1cc(NC(=O)C(C)C)cc(-c2ccc(C(F)(F)C(F)(F)F)c(F)c2)c1` [I-051]: in the test with Ctenocephalides felis, the mortality at 100 µg/mL came out at 100%. Also, the mortality at 500 g/ha in the test with Phaedon cochleariae and in the test with Spodoptera frugiperda was 100% each time.
On to `CC(C)C(=O)Nc1cc(-c2ccc(C(F)(F)C(F)(F)F)c(F)c2)cc(NC(=O)C(C)C)n1` [I-052], for which the mortality at 100 µg/mL with Ctenocephalides felis is 100%. Further, the mortality at 500 g/ha with Phaedon cochleariae and in the test with Spodoptera frugiperda was 100% each time.
In the case of `O=C(Nc1cc(-c2cc(F)c(C(F)(F)C(F)(F)F)c(Cl)c2)cc(NC(=O)C2CC2)n1)C1CC1` [I-053], the mortality at 500 g/ha in the test on Phaedon cochleariae and in the test with Spodoptera frugiperda was 100% in each case.
Turning to `CC(C)C(=O)Nc1cc(-c2ccc(C(F)(F)C(F)(F)F)c(F)c2)cc(NC(=O)C2CC2)n1` [I-054], the mortality at 500 g/ha with Phaedon cochleariae and in the test with Spodoptera frugiperda was 100% each time.
For the molecule `CCC(=O)Nc1cc(-c2ccc(C(F)(F)C(F)(F)F)c(F)c2)cc(NC(=O)C2CC2)n1` [I-055], the mortality at 100 µg/mL in the test with Ctenocephalides felis is 100%. Moreover, the mortality at 500 g/ha in the test on Phaedon cochleariae and in the test with Spodoptera frugiperda was 100% each time.
`CC(=O)Nc1cc(-c2ccc(C(F)(F)C(F)(F)F)c(F)c2)cc(NC(=O)C2CC2)n1` [I-056]: the mortality at 500 g/ha in the test on Phaedon cochleariae and in the test on Spodoptera frugiperda was 100% throughout.
Turning to `N#CC1(C(=O)Nc2cc(-c3ccc(C(F)(F)C(F)(F)F)c(F)c3)cc(NC(=O)C3CC3)n2)CC1` [I-057], in the test with Spodoptera frugiperda, the mortality at 500 g/ha was 100%.
Take `CCC(=O)Nc1cc(-c2ccc(C(F)(F)C(F)(F)F)c(F)c2)cc(NC(=O)CC)n1` [I-058]: the mortality at 500 g/ha in the test with Phaedon cochleariae and in the test on Spodoptera frugiperda was 100% throughout.
With `CC(=O)Nc1cc(-c2ccc(C(F)(F)C(F)(F)F)c(F)c2)cc(NC(C)=O)n1` [I-059], the mortality at 500 g/ha with Phaedon cochleariae and with Spodoptera frugiperda was 100% in each case.
For the molecule `N#Cc1ccc(CC(=O)Nc2cc(NC(=O)C3CC3)cc(-c3ccc(C(F)(F)C(F)(F)F)c(F)c3)c2)cc1` [I-061], the mortality at 500 g/ha in the test with Spodoptera frugiperda turned out to be 83%.
For the molecule `O=C(Nc1cc(-c2c(F)cc(C(F)(F)C(F)(F)F)c(F)c2F)cc(NC(=O)C2CC2)n1)C1CC1` [I-062], the mortality at 500 g/ha in the test on Phaedon cochleariae and in the test with Spodoptera frugiperda was 100% each time.

The values above are taken from patent EP3284739A1, “SUBSTITUTED (HET) ARYL COMPOUNDS AS PESTICIDES” (Bayer CropScience Aktiengesellschaft, priority 2017, dated 2018).
